From patent EP0119446A2, “Growth promoting aminophenylethyl amine derivatives” (BAYER AG, priority 1983, dated 1984)

Tested on: Ratten, weiblich
Test: Feeding trial in rats (feed intake, weight gain, feed conversion)
Type: in vivo, Ratten (SPF Wistar)
Conditions: n = 6
Description: (§1) Die Tiere wurden 2 Tage an die neuen Haltungsbedingungen adaptiert, wobei generell das Versuchsfutter ohne Wirkstoffzusatz verabreicht wurde. Am dritten Versuchstag wurden die Tiere randomisiert und anschließend die Versuchsgruppen so gebildet, daß sowohl die Mittelwerte als auch die Streuungen in den Körpergewichten zwischen den Gruppen gleich waren. Nach einer 5-tägigen Vorperiode wurde eine 8-tägige Hauptperiode durchgeführt, in denen Futteraufnahme, Zuwachs und Futterverwertung bestimmt wurden.
Es wurden folgende Behandlungen geprüft: • b 1) Negativkontrolle (n = 12) • b 2) 25 ppm (Wirkstoff Beispiel 12) (n = 6)
as §1, with “7-tägige” for “8-tägige”
Es wurden folgende Behandlungen geprüft: • b 1) Negativkontrolle (n = 12) • b 2) 0,2 ppm (Wirkstoff Beispiel 12) (n = 6) • b 3) 10 ppm (Wirkstoff Beispiel 12) (n = 6)
Es wurden folgende Behandlungen geprüft: • b 1) Negativkontrolle (n = 12) • b 2) 25 ppm (Wirkstoff Beispiel 2) (n = 6)
as §1, with “7-tägigen” for “5-tägigen”, “7-tägige” for “8-tägige”
Es wurden folgende Behandlungen geprüft: • b 1) Negativkontrolle (n = 24) • b 2) 25 ppm (Wirkstoff Beispiel 2) (n = 6)
Es wurden folgende Behandlungen geprüft: • b 1) Negativkontrolle (n = 12) • b 2) 0,2 ppm (Wirkstoff Beispiel 1) (n = 6) • b 3) 10 ppm (Wirkstoff Beispiel 1) (n = 6)

[1] = 0,2 ppm in feed, whole test period 12 Tage (5-day pre-period + 7-day main period), negative control 200
[2] = 0,2 ppm in feed, whole test period 12 Tage, negative control 4,88
[3] = 0,2 ppm in feed, whole test period 12 Tage, negative control 41,0
[4] = 10 ppm in feed, whole test period 12 Tage (5-day pre-period + 7-day main period), negative control 200
[5] = 10 ppm in feed, whole test period 12 Tage, negative control 4,88
[6] = 10 ppm in feed, whole test period 12 Tage, negative control 41,0
[7] = 25 ppm in feed, whole test period 13 Tage (5-day pre-period + 8-day main period), negative control 174
[8] = 25 ppm in feed, whole test period 13 Tage, negative control 5,06
[9] = 25 ppm in feed, whole test period 13 Tage, negative control 35,4

SMILES	Futter-aufnahme [1] [g]	Futter-verwer-tung [2]	Zuwachs [3]	Futter-aufnahme [4] [g]	Futter-verwer-tung [5]	Zuwachs [6]	Futter-aufnahme [7] [g]	Futter-verwer-tung [8]	Zuwachs [9]	Futter-aufnahme (25 ppm in feed, whole test period 14 Tage (7-day pre-period + 7-day main period), negative control 225) [g]	Futter-verwer-tung (25 ppm in feed, whole test period 14 Tage, negative control 5,30)	Zuwachs (25 ppm in feed, whole test period 14 Tage, negative control 40,6)
CC(C)C(C)[Si](C)(C)OC(CN(C(C)(C)C)[Si](C)(C)C(C)C(C)C)c1cc(Cl)c(N)c(Cl)c1 (stereo not drawn) [Bsp. 12]	217	4,13 g/g	52,5 g	204	4,03 g/g	50,7 g	193	3,77 g/g	51,9 g			
Cc1cc(NCC(O)c2cc(Cl)c(N)c(Cl)c2)ccc1Oc1ccc(SC(F)(F)F)cc1 (stereo not drawn) [Bsp. 1]	204	4,25 g/g	47,9 g	206	4,46 g/g	46,2 g	184	4,23 g/g	43,9 g			
Cc1cc(NCC(O)c2cc(Cl)c(N)c(Cl)c2)ccc1Oc1ccc(S(=O)(=O)C(F)(F)F)cc1 (stereo not drawn) [Bsp. 2]							180	4,85 g/g	37,5 g	233	4,88 g/g	47,8 g
